{"source": "paper PMC12454493", "about": "“Insight on novel sulfamoylphenyl pyrazole derivatives as anticancer carbonic anhydrase inhibitors” (Molecular Diversity, 2024)", "key": {"[1]": {"tested_on": "MALME-3M", "assay": "NCI-60 one-dose SRB screen (Melanoma)", "type": "cell-based", "conditions": "Homo sapiens, single dose 10 µM, 48 h, read-out: Growth inhibition percent (GI %)", "procedure": "(§1) The National Cancer Institute (NCI) Developmental Therapeutic Program (www.dtp.nci.nih.gov) selected the 20 novel synthesized compounds 4a-e, 5a-e, 6a-c, 9a-e, 10 and 11 to test for their anticancer activity at a single dose of 10 µM using SRB assay. […] Supplementary Data S3; Table S1 presents the detailed screening results of the most promising compounds. The preliminary screening’s detailed results for the remaining compounds are elucidated in the (Supplementary Data S3; Table S2).\n(§2) The guidelines of the Drug Evaluation Branch’s protocol at the NCI in Bethesda served as the basis for the in vitro anticancer screening assays. at one dose 10 µM against a panel of 60 cancer cell lines. The human tumor cell lines used belonged to nine panels: leukemia, melanoma, lung, colon, CNS, ovarian, renal, prostate and breast cancers using the sulforhodamine B (SRB) assay in a 48 h drug exposure protocol."}, "[2]": {"tested_on": "MDA-MB-435", "assay": "NCI-60 one-dose SRB screen (Melanoma)", "type": "cell-based", "conditions": "Homo sapiens, single dose 10 µM, 48 h, read-out: Growth inhibition percent (GI %)", "procedure": "as §1, §2"}, "[3]": {"tested_on": "SK-MEL-28", "assay": "NCI-60 one-dose SRB screen (Melanoma)", "type": "cell-based", "conditions": "Homo sapiens, single dose 10 µM, 48 h, read-out: Growth inhibition percent (GI %)", "procedure": "as §1, §2"}, "[4]": {"tested_on": "SK-MEL-2", "assay": "NCI-60 one-dose SRB screen (Melanoma)", "type": "cell-based", "conditions": "Homo sapiens, single dose 10 µM, 48 h, read-out: Growth inhibition percent (GI %)", "procedure": "as §1, §2"}, "[5]": {"tested_on": "SK-MEL-5", "assay": "NCI-60 one-dose SRB screen (Melanoma)", "type": "cell-based", "conditions": "Homo sapiens, single dose 10 µM, 48 h, read-out: Growth inhibition percent (GI %)", "procedure": "as §1, §2"}, "[6]": {"tested_on": "UACC-257", "assay": "NCI-60 one-dose SRB screen (Melanoma)", "type": "cell-based", "conditions": "Homo sapiens, single dose 10 µM, 48 h, read-out: Growth inhibition percent (GI %)", "procedure": "as §1, §2"}, "[7]": {"tested_on": "UACC-62", "assay": "NCI-60 one-dose SRB screen (Melanoma)", "type": "cell-based", "conditions": "Homo sapiens, single dose 10 µM, 48 h, read-out: Growth inhibition percent (GI %)", "procedure": "as §1, §2"}, "[8]": {"tested_on": "IGROV1", "assay": "NCI-60 one-dose SRB screen (Ovarian cancer)", "type": "cell-based", "conditions": "Homo sapiens, IGROV-1, single dose 10 µM, 48 h, read-out: Growth inhibition percent (GI %)", "procedure": "as §1, §2"}, "[9]": {"tested_on": "NCI/ADR-RES", "assay": "NCI-60 one-dose SRB screen (Ovarian cancer)", "type": "cell-based", "conditions": "Homo sapiens, single dose 10 µM, 48 h, read-out: Growth inhibition percent (GI %)", "procedure": "as §1, §2"}, "[10]": {"tested_on": "OVCAR-3", "assay": "NCI-60 one-dose SRB screen (Ovarian cancer)", "type": "cell-based", "conditions": "Homo sapiens, single dose 10 µM, 48 h, read-out: Growth inhibition percent (GI %)", "procedure": "as §1, §2"}, "[11]": {"tested_on": "OVCAR-4", "assay": "NCI-60 one-dose SRB screen (Ovarian cancer)", "type": "cell-based", "conditions": "Homo sapiens, single dose 10 µM, 48 h, read-out: Growth inhibition percent (GI %)", "procedure": "as §1, §2"}, "[12]": {"tested_on": "OVCAR-5", "assay": "NCI-60 one-dose SRB screen (Ovarian cancer)", "type": "cell-based", "conditions": "Homo sapiens, single dose 10 µM, 48 h, read-out: Growth inhibition percent (GI %)", "procedure": "as §1, §2"}, "[13]": {"tested_on": "OVCAR-8", "assay": "NCI-60 one-dose SRB screen (Ovarian cancer)", "type": "cell-based", "conditions": "Homo sapiens, single dose 10 µM, 48 h, read-out: Growth inhibition percent (GI %)", "procedure": "as §1, §2"}, "[14]": {"tested_on": "SK-OV-3", "assay": "NCI-60 one-dose SRB screen (Ovarian cancer)", "type": "cell-based", "conditions": "Homo sapiens, single dose 10 µM, 48 h, read-out: Growth inhibition percent (GI %)", "procedure": "as §1, §2"}, "[15]": {"tested_on": "786-0", "assay": "NCI-60 one-dose SRB screen (Renal Cancer)", "type": "cell-based", "conditions": "Homo sapiens, single dose 10 µM, 48 h, read-out: Growth inhibition percent (GI %)", "procedure": "as §1, §2"}, "[16]": {"tested_on": "A498", "assay": "NCI-60 one-dose SRB screen (Renal Cancer)", "type": "cell-based", "conditions": "Homo sapiens, single dose 10 µM, 48 h, read-out: Growth inhibition percent (GI %)", "procedure": "as §1, §2"}, "[17]": {"tested_on": "ACHN", "assay": "NCI-60 one-dose SRB screen (Renal Cancer)", "type": "cell-based", "conditions": "Homo sapiens, single dose 10 µM, 48 h, read-out: Growth inhibition percent (GI %)", "procedure": "as §1, §2"}, "[18]": {"tested_on": "CAKI-1", "assay": "NCI-60 one-dose SRB screen (Renal Cancer)", "type": "cell-based", "conditions": "Homo sapiens, single dose 10 µM, 48 h, read-out: Growth inhibition percent (GI %)", "procedure": "as §1, §2"}, "[19]": {"tested_on": "RXF 393", "assay": "NCI-60 one-dose SRB screen (Renal Cancer)", "type": "cell-based", "conditions": "Homo sapiens, single dose 10 µM, 48 h, read-out: Growth inhibition percent (GI %)", "procedure": "as §1, §2"}, "[20]": {"tested_on": "TK-10", "assay": "NCI-60 one-dose SRB screen (Renal Cancer)", "type": "cell-based", "conditions": "Homo sapiens, single dose 10 µM, 48 h, read-out: Growth inhibition percent (GI %)", "procedure": "as §1, §2"}, "[21]": {"tested_on": "UO-31", "assay": "NCI-60 one-dose SRB screen (Renal Cancer)", "type": "cell-based", "conditions": "Homo sapiens, single dose 10 µM, 48 h, read-out: Growth inhibition percent (GI %)", "procedure": "as §1, §2"}, "[22]": {"tested_on": "DU-145", "assay": "NCI-60 one-dose SRB screen (Prostate Cancer)", "type": "cell-based", "conditions": "Homo sapiens, single dose 10 µM, 48 h, read-out: Growth inhibition percent (GI %)", "procedure": "as §1, §2"}, "[23]": {"tested_on": "PC-3", "assay": "NCI-60 one-dose SRB screen (Prostate Cancer)", "type": "cell-based", "conditions": "Homo sapiens, single dose 10 µM, 48 h, read-out: Growth inhibition percent (GI %)", "procedure": "as §1, §2"}, "[24]": {"tested_on": "BT-549", "assay": "NCI-60 one-dose SRB screen (Breast Cancer)", "type": "cell-based", "conditions": "Homo sapiens, single dose 10 µM, 48 h, read-out: Growth inhibition percent (GI %)", "procedure": "as §1, §2"}, "[25]": {"tested_on": "HS 578T", "assay": "NCI-60 one-dose SRB screen (Breast Cancer)", "type": "cell-based", "conditions": "Homo sapiens, single dose 10 µM, 48 h, read-out: Growth inhibition percent (GI %)", "procedure": "as §1, §2"}, "[26]": {"tested_on": "MCF-7", "assay": "NCI-60 one-dose SRB screen (Breast Cancer)", "type": "cell-based", "conditions": "Homo sapiens, MCF7, single dose 10 µM, 48 h, read-out: Growth inhibition percent (GI %)", "procedure": "as §1, §2"}, "[27]": {"tested_on": "MDA-MB-231/ATCC", "assay": "NCI-60 one-dose SRB screen (Breast Cancer)", "type": "cell-based", "conditions": "Homo sapiens, single dose 10 µM, 48 h, read-out: Growth inhibition percent (GI %)", "procedure": "as §1, §2"}, "[28]": {"tested_on": "MDA-MB-468", "assay": "NCI-60 one-dose SRB screen (Breast Cancer)", "type": "cell-based", "conditions": "Homo sapiens, single dose 10 µM, 48 h, read-out: Growth inhibition percent (GI %)", "procedure": "as §1, §2"}, "[29]": {"tested_on": "T-47D", "assay": "NCI-60 one-dose SRB screen (Breast Cancer)", "type": "cell-based", "conditions": "Homo sapiens, T47D, single dose 10 µM, 48 h, read-out: Growth inhibition percent (GI %)", "procedure": "as §1, §2"}, "[30]": {"target": "hCA XII (Homo sapiens, UniProt O43570)", "sequence (O43570 25-354)": "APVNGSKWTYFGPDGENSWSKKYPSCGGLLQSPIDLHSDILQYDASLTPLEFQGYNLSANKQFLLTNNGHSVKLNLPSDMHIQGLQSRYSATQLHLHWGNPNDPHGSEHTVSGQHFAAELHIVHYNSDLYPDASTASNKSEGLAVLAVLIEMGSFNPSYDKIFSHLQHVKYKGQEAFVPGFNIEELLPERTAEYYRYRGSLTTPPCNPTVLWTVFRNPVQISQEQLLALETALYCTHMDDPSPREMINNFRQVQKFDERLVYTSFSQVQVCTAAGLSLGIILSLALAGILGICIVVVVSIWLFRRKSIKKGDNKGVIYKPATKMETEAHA", "assay": "CA inhibitory activity, spectrophotometric p-NPA assay", "type": "biochemical", "conditions": "p-NPA substrate, pH 7.5, 25 °C, triplicate; read-out: IC50 (µM) ± SD hCA XII", "experimental": "The software used to calculate CA IC50 along with statistical analysis of the results is GraphPad Prism 9.00. Results were estimated by using one-way ANOVA and the Bonferroni’s multiple comparisons posthoc test was performed (P < 0.05) [46]\nCarbonic anhydrase inhibitory activity:\nThe spectrophotometric assay was conducted in HEPES-Tris buffer, NaCl of pH 7.5 (20mM) at 25◦C. Each inhibitory well-consisted of 50 μL of assay buffer solution, 20 μL of hCA enzyme solution (20 ng/μL in Assay Buffer), and 50 μL of test compound in HPLC grade DMSO (maintain 10% of the final concentration). The mixture solution was\nSubstrate p-nitrophenyl acetate (p-NPA) (0.7mM) was prepared in HPLC grade methanol and the reaction was started by adding 20 μL to a well in a 96-well-plate. The amount of product formed was measured for 30 min continuously at 1 min intervals at 400 nm in a 96-well-plate using xMARK microplate spectrophotometer, Bio-Rad (USA). The activity of the controlled compound was taken as 100%. All experiments were carried out in triplicates of each used concentration, and results are represented as a"}}, "note": "Values joined by “and” are separate entries in the source; they are usually repeats but may differ in a detail not shown here. Identical values can stand only once."}
{"smiles": "CCOC(=O)c1ccc(NC(=O)COC(=O)c2cn(-c3ccc(S(N)(=O)=O)cc3)nc2-c2ccccc2)cc1", "note": "[Compound 5a, 2-[(4-(Ethoxycarbonyl)phenyl)amino]-2-oxoethyl 3-phenyl-1-(4-sulfamoylphenyl)-1H-pyrazole-4-carboxylate]", "values": [{"measurement": "inhibition at 10 µM", "setting": "[1]", "value": 79.1, "unit": "%"}, {"measurement": "inhibition at 10 µM", "setting": "[2]", "value": 45.1, "unit": "%"}, {"measurement": "inhibition at 10 µM", "setting": "[3]", "value": 54.5, "unit": "%"}, {"measurement": "inhibition at 10 µM", "setting": "[4]", "value": 50.8, "unit": "%"}, {"measurement": "inhibition at 10 µM", "setting": "[5]", "value": 70.1, "unit": "%"}, {"measurement": "inhibition at 10 µM", "setting": "[6]", "value": 48, "unit": "%"}, {"measurement": "inhibition at 10 µM", "setting": "[7]", "value": 55.2, "unit": "%"}, {"measurement": "inhibition at 10 µM", "setting": "[8]", "value": 45.4, "unit": "%"}, {"measurement": "inhibition at 10 µM", "setting": "[9]", "value": 16.6, "unit": "%"}, {"measurement": "inhibition at 10 µM", "setting": "[10]", "value": 42.7, "unit": "%"}, {"measurement": "inhibition at 10 µM", "setting": "[11]", "value": 46.6, "unit": "%"}, {"measurement": "inhibition at 10 µM", "setting": "[12]", "value": 28.7, "unit": "%"}, {"measurement": "inhibition at 10 µM", "setting": "[13]", "value": 39.5, "unit": "%"}, {"measurement": "inhibition at 10 µM", "setting": "[14]", "value": 5.67, "unit": "%"}, {"measurement": "inhibition at 10 µM", "setting": "[15]", "value": 66.9, "unit": "%"}, {"measurement": "inhibition at 10 µM", "setting": "[16]", "value": 25.3, "unit": "%"}, {"measurement": "inhibition at 10 µM", "setting": "[17]", "value": 76.1, "unit": "%"}, {"measurement": "inhibition at 10 µM", "setting": "[18]", "value": 61.6, "unit": "%"}, {"measurement": "inhibition at 10 µM", "setting": "[19]", "value": 66.5, "unit": "%"}, {"measurement": "inhibition at 10 µM", "setting": "[20]", "value": 40.1, "unit": "%"}, {"measurement": "inhibition at 10 µM", "setting": "[21]", "value": 62.7, "unit": "%"}, {"measurement": "inhibition at 10 µM", "setting": "[22]", "value": 29.1, "unit": "%"}, {"measurement": "inhibition at 10 µM", "setting": "[23]", "value": 68.1, "unit": "%"}, {"measurement": "inhibition at 10 µM", "setting": "[24]", "value": 64.1, "unit": "%"}, {"measurement": "inhibition at 10 µM", "setting": "[25]", "value": 44.6, "unit": "%"}, {"measurement": "inhibition at 10 µM", "setting": "[26]", "value": 81.6, "unit": "%"}, {"measurement": "inhibition at 10 µM", "setting": "[27]", "value": 35.8, "unit": "%"}, {"measurement": "inhibition at 10 µM", "setting": "[28]", "value": 62, "unit": "%"}, {"measurement": "inhibition at 10 µM", "setting": "[29]", "value": 69.7, "unit": "%"}, {"measurement": "IC50", "setting": "[30]", "value": "0.39 µM and 0.395 µM"}]}
